Like-named read-outs stand apart in the source and are kept apart here.
Tests used:
[1] = test system: purified naïve B cells from healthy donors
Protocol: Hemin and RBC lysate preparation. Hemin, dissolved in dimethyl sulfoxide (DMSO), stock concentration 10 mM, was diluted to 100 μM with serum-free RPMI 1640 culture medium just prior to addition to B cell cultures. For short-term experiments lasting less than 24 hr, a final concentration of 10 μM hemin was used whereas for longer-term culture up to 7 days, 2.5-5 μM final heme concentration was used. RBC lysates were freshly prepared (containing ~80 g/L hemoglobin) for same day use. Briefly, 4 ml whole blood from healthy donors was passed through Acrodisc WBC syringe filter (Pall Corporation) to remove white blood cells followed by two washes with Dulbecco's Phosphate Buffered Saline (D-PBS) (200×g, 10 min at room temperature with no brake) for removal of platelets. The RBC pellet was lysed with 3 times volume of distilled water for 10 min at 37° C. Cellular debris was pelleted by centrifugation at 4000×g for 10 min at 4° C. The RBC lysate was transferred to a new tube and 1/9 volume of 10×D-PBS added.
Cell isolation and culture. Peripheral blood mononuclear cells (PBMCs) were prepared by Ficoll (GE Healthcare) density gradient centrifugation from healthy donor leukopak products as well as from sickle peripheral blood apheresis waste bags. Human naïve and memory B cells were isolated from PBMCs using a human memory B Cell Isolation Kit (Miltenyi Biotec) by collecting CD27− B cells (naïve B cells) and CD27+ B cell (memory B cells) separately. […] RPMI 1640 culture medium was used for all cell culture experiments (supplemented with 10% FBS, 100-unit penicillin-streptomycin, […], 1 mM sodium pyruvate, all from Thermo Fisher Scientific). Purified B cells were stained with CFSE (Cat #: C34554, Thermo Fisher Scientific) and cultured in U-bottom 96 well plates (2.5×10^5/well/200 μl culture medium) in the presence of goat anti-human IgA+IgG+IgM (H+L) F(ab′)2 fragment (2.5 μg/ml, Jackson ImmunoResearch), CD154 (10 ng/ml, R&D Systems) and CpG (ODN 7909, 1 nM, Cat #: tlrl-2006-1) without IL-2 for analysis of only CD38+ plasmablast differentiation or with IL-2 (5 ng/ml, Cat #:1081-IL-020, R&D Systems) in experiments to detect CD27^hiBlimp-1+ plasma cells. In addition, heme and various inhibitors were added to the cultures at the start point and incubated for 7 days.
Cultured cells: stimulated B cells were transferred into U bottom 96 well plate and washed with 200 μl MACS buffer (D-PBS containing 0.5% BSA and 2 mM EDTA) at 300×g for 5 min at 4° C. After one wash, cells were stained for surface expression of CD19, CD38, CD27 using 25 μl staining buffer (anti-CD19, CD38, CD27 antibodies, diluted 200 fold with MACS buffer) for 30 min at 4° C. After one wash with 200 μl MACS buffer, cells were resuspended in 100 μl D-PBS and 50 μl Fixable Viability Dye eFluor™ 780 (1000 fold diluted with D-PBS, Thermo Fisher Scientific) was added for dead cell detection for 5 min at room temperature. Cells were washed one time with MACS buffer and 100 μl D-DPS was added just before flow cytometric analysis (LSRFortessa flow cytometer, BD Bioscience). For intracellular staining of IgG, Blimp-1 and HO-1, samples were first washed with 200 μl MACS buffer before addition of 150 μl Fixation/Permeabilization buffer (Thermo Fisher Scientific) for 45 min at 4° C. After fixation, samples were washed twice with 1× Permeabilization buffer (Thermo Fisher Scientific) and stained with 25 μl intracellular staining buffer (anti-human IgG, DOCK8, Blimp-1, HO-1 antibodies, diluted 200 fold with 1× Permeabilization buffer) for 45 min at 4° C., after which the cells were washed twice with Permeabilization buffer and 100p D-DPS was added prior to flow cytometric analysis.

[2] = test system: CD27+ memory B cells from healthy donors; experiment: 7-day stimulated memory B cell culture; assay type: cell-based, human; conditions: different doses of hemin, 7 days
Text: FIG. 6A-G. Effect of heme on memory plasmablast differentiation and IgG class-switch B cell development. FIG. 6A: Gating strategy for single live B cell analysis after culture. FIG. 6B: Fold change in CD38+ plasmablast cells in 7-day stimulated HD purified CD27+ memory B cells (as described for naïve B cell cultures in FIG. 1) in the presence of different doses of hemin relative to no hemin treatment. FIG. 6C: Histogram showing IgG expression levels in CD38+ plasmablasts from naïve B cell stimulated cultures. FIG. 6D: Fold change of IgG+ cell frequency in CD38+ plasmablasts in the presence of 2.5 μM or 5 μM hemin relative to no hemin treatment in stimulated naïve B cells from HD, Allo(−) and Allo(+) SCD patients. FIG. 6E: Naïve B cells from HD were cultured with 20% SCD patients' sera from Allo(−) or Allo(+) patients and stimulated with B cell activation cocktail for 7 days as described. Frequency of CD38+ plasmablasts is shown. FIG. 6F: Fold change of proliferated B cell frequency (within total, live B cells) in the presence of 2.5 μM or 5 μM hemin relative to no hemin treatment in stimulated naïve B cells from HD, Allo(−) and Allo(+) SCD patients. FIG. 6G: The change and fold change of live cell frequency in total 7-day stimulated HD B cell in the presence of different concentrations of hemin.
Cell isolation and culture.

[3] = test system: DOCK8; experiment: DOCK8 expression and DOCK8hi/DOCK8lo subsets in stimulated B cells; assay type: cell-based, human; conditions: heme 5 μM
Text: We next tested the effect of cell-free heme on DOCK8 signaling during B cell differentiation. […] Heme treatment led to inhibition of CD27^hiBlimp-1^+ plasma cell differentiation (FIG. 2D, p=0.0195).

[4] = test system: Bach2; experiment: Bach2 levels in human B cells; assay type: cell-based; conditions: in the presence of heme
[5] = HD naïve B cells, 7 days, highest heme concentration tested (5 μM)

C=CC1=C(C)c2cc3[n-]c(cc4[n-]c(cc5nc(cc1n2)C(C)=C5C=C)c(C)c4CCC(=O)O)c(CCC(=O)O)c3C.[Fe+2] [heme, iron(III) complex of protoporphyrin IX]
effect on B cell proliferation ([1]; 2.5 μM heme): minor inhibition
effect on differentiation of naïve B cells into plasmablasts ([1]; 2.5 μM heme): robust inhibitory effect
B cell class switch recombination (percent IgG+ B cells) ([1]; 2.5 or 5 μM hemin): not affected
inhibition of B cell proliferation [1, 5]: 6.8%±1.3%
inhibition of plasmablast cell differentiation [1, 5]: 52.7%±8.0%
effect on B cell proliferation ([1]; heme 2.5 μM, SnPPIX 2.5 μM, alone or together): little to no effect
CD27hiBlimp-1+ plasma cell differentiation ([1]; heme 2.5 or 5 μM, 7 days): inhibition
percentage of viable B cells ([1]; highest dose of heme used): high
effect on memory B cell proliferation or differentiation [2]: no effect
reduction in DOCK8hi subset [3]: 61.6%±6.5%
reduction in DOCK8lo subset [3]: 34.1%±5.9%
Bach2 levels [4]: no significant change

From patent publication US12678433B2, “Compounds for treatment of hemolysis-and inflammasome-associated diseases” (New York Blood Center, Inc., priority 2020, dated 2026)
